Where only a bound is given, the exact number is not on record here.

Sequence of PLK1 (P53350 whole entry): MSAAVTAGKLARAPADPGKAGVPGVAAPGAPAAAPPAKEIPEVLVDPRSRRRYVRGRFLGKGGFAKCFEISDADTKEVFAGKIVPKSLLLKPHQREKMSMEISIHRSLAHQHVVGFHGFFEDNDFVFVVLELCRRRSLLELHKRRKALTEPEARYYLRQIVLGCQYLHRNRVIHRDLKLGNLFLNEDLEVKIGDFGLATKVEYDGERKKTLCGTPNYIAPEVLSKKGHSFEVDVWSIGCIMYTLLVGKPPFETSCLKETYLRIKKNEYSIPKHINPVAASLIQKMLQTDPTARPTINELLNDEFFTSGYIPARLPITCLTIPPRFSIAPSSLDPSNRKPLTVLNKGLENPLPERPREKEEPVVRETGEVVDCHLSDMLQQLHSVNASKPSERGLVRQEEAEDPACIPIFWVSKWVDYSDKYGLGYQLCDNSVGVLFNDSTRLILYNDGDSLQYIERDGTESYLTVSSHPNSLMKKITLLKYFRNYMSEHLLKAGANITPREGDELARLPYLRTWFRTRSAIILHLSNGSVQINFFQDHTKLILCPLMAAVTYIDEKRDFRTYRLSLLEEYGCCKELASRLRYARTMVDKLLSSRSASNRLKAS

This assay deals with PLK1 (Homo sapiens, UniProt P53350). Briefly: PLK1 Inhibition Assay I (radioactive-phosphate incorporation). In kind it is biochemical. Particulars: Ki(app); PLK1 Inhibition Assay I or II (table does not say which). An outline of the steps:
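Ki(app) values came from non-linear regression of initial rates after background subtraction, with phosphopeptide measured by phosphocellulose filter binding and scintillation counting. PLK1 at 2 nM was preincubated with compound (typically from 10 μM, 2-fold dilutions) for 10 min, then run 240 min at 25° C with 350 μM [γ-33P]ATP and 450 μM peptide substrate in HEPES pH 7.5 buffer.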
As to `CCOc1ccc(C(C)Nc2ncc(C#N)c(-c3c[nH]c4ncc(C(F)(F)F)cc34)n2)cc1` (stereo not drawn) [Compound I-112, 2-(1-(4-ethoxyphenyl)ethylamino)-4-(5-(trifluoromethyl)-1H-pyrrolo[2,3-b]pyridin-3-yl)pyrimidine-5-carbonitrile], the Ki is under 3 nM.

With `CC(Nc1ncc(C#N)c(-c2c[nH]c3ncc(C(F)(F)F)cc23)n1)c1ccc(C2(O)CCN(C)CC2)nc1` (stereo not drawn) [Compound I-266, 2-(1-(6-(4-hydroxy-1-methylpiperidin-4-yl)pyridin-3-yl)ethylamino)-4-(5-(trifluoromethyl)-1H-pyrrolo[2,3-b]pyridin-3-yl)pyrimidine-5-carbonitrile], the Ki was under 3 nM.

With `CCN1CCC(CNc2ncc(C#N)c(-c3c[nH]c4ncc(C(F)(F)F)cc34)n2)CC1` [Compound I-118, 2-((1-ethylpiperidin-4-yl)methylamino)-4-(5-(trifluoromethyl)-1H-pyrrolo[2,3-b]pyridin-3-yl)pyrimidine-5-carbonitrile], the Ki is over 40 nM.

For `N#Cc1cnc(NCc2ccncc2)nc1-c1c[nH]c2ncc(C(F)(F)F)cc12` [Compound I-23, 2-(pyridin-4-ylmethylamino)-4-(5-(trifluoromethyl)-1H-pyrrolo[2,3-b]pyridin-3-yl)pyrimidine-5-carbonitrile], the Ki was over 40 nM.

In the case of `C[C@@H](Nc1ncc(C#N)c(-c2c[nH]c3ncc(C(F)(F)F)cc23)n1)C1CCN(C(=O)[C@H](N)CO)CC1` [Compound I-240, 2-((R)-1-(1-((R)-2-amino-3-hydroxypropanoyl)piperidin-4-yl)ethylamino)-4-(5-(trifluoromethyl)-1H-pyrrolo[2,3-b]pyridin-3-yl)pyrimidine-5-carbonitrile], the Ki was under 3 nM.

As for `CC[C@@H](C)Nc1ncc(C#N)c(-c2c[nH]c3ncc(C(F)(F)F)cc23)n1` [Compound I-83, 2-(sec-butylamino)-4-(5-(trifluoromethyl)-1H-pyrrolo[2,3-b]pyridin-3-yl)pyrimidine-5-carbonitrile], the Ki is under 3 nM.

Consider `CC(C)(Nc1ncc(C#N)c(-c2c[nH]c3ncc(Cl)cc23)n1)C(=O)NCCC(F)(F)F`, for which the Ki was over 40 nM.

On to `CC(Nc1ncc(C#N)c(-c2c[nH]c3ncc(C(F)(F)F)cc23)n1)C1CCN(CC#N)CC1` (stereo not drawn) [Compound I-166, 2-(1-(1-(cyanomethyl)piperidin-4-yl)ethylamino)-4-(5-(trifluoromethyl)-1H-pyrrolo[2,3-b]pyridin-3-yl)pyrimidine-5-carbonitrile], for which the Ki was under 3 nM.

For `N#Cc1cnc(NCc2ccc(-c3cccs3)cc2)nc1-c1c[nH]c2ncc(C(F)(F)F)cc12` [Compound I-54, 2-(4-(thiophen-2-yl)benzylamino)-4-(5-(trifluoromethyl)-1H-pyrrolo[2,3-b]pyridin-3-yl)pyrimidine-5-carbonitrile], the Ki was over 40 nM.

For `CC(C)(Nc1ncc(C#N)c(-c2c[nH]c3ncc(C(F)(F)F)cc23)n1)c1ccccc1` [Compound I-9, 2-(2-phenylpropan-2-ylamino)-4-(5-(trifluoromethyl)-1H-pyrrolo[2,3-b]pyridin-3-yl)pyrimidine-5-carbonitrile], the Ki fell in the range of 3 to 40 nM.

For `C[C@@H](Nc1ncc(C#N)c(-c2c[nH]c3ncc(C(F)(F)F)cc23)n1)C1CCN(C(=O)C(N)=O)CC1` [Compound I-258, 2-(4-((1R)-1-(5-cyano-4-(5-(trifluoromethyl)-1H-pyrrolo[2,3-b]pyridin-3-yl)pyrimidin-2-ylamino)ethyl)piperidin-1-yl)-2-oxoacetamide], the Ki is under 3 nM.

For the compound `CC(C)C[C@@H](N)C(=O)N1CCC([C@@H](C)Nc2ncc(C#N)c(-c3c[nH]c4ncc(C(F)(F)F)cc34)n2)CC1` [Compound I-241, 2-((R)-1-(1-((R)-2-amino-4-methylpentanoyl)piperidin-4-yl)ethylamino)-4-(5-(trifluoromethyl)-1H-pyrrolo[2,3-b]pyridin-3-yl)pyrimidine-5-carbonitrile], the Ki is 3 to 40 nM.

`N#Cc1cnc(NC2CCCC2)nc1-c1c[nH]c2ncc(C(F)(F)F)cc12` [Compound I-73, 2-(cyclopentylamino)-4-(5-(trifluoromethyl)-1H-pyrrolo[2,3-b]pyridin-3-yl)pyrimidine-5-carbonitrile]: the Ki was 3 to 40 nM.

For `CC(C)C[C@H](CO)Nc1ncc(C#N)c(-c2c[nH]c3ncc(C(F)(F)F)cc23)n1` [Compound I-44, 2-((R)-1-hydroxy-4-methylpentan-2-ylamino)-4-(5-(trifluoromethyl)-1H-pyrrolo[2,3-b]pyridin-3-yl)pyrimidine-5-carbonitrile], the Ki is over 40 nM.

As for `COc1ccc(C(C)Nc2ncc(C#N)c(-c3c[nH]c4ncc(C(F)(F)F)cc34)n2)cc1Cl` (stereo not drawn) [Compound I-84, 2-(1-(3-chloro-4-methoxyphenyl)ethylamino)-4-(5-(trifluoromethyl)-1H-pyrrolo[2,3-b]pyridin-3-yl)pyrimidine-5-carbonitrile], the Ki is under 3 nM.

Regarding `N#Cc1cnc(NC(CO)c2ccccc2)nc1-c1c[nH]c2ncc(C(F)(F)F)cc12` (stereo not drawn) [Compound I-75, 2-(2-hydroxy-1-phenylethylamino)-4-(5-(trifluoromethyl)-1H-pyrrolo[2,3-b]pyridin-3-yl)pyrimidine-5-carbonitrile], the Ki was in the range of 3 to 40 nM.

Turning to `C[C@@H](Nc1ncc(C#N)c(-c2c[nH]c3ncc(C(F)(F)F)cc23)n1)c1ccccc1` [Compound I-6, 2-((R)-1-phenylethylamino)-4-(5-(trifluoromethyl)-1H-pyrrolo[2,3-b]pyridin-3-yl)pyrimidine-5-carbonitrile], the Ki is under 3 nM.

On to `CC(C)Oc1ncc(C#N)c(-c2c[nH]c3ncc(C(F)(F)F)cc23)n1` [EG5, 2-isopropoxy-4-(5-(trifluoromethyl)-1H-pyrrolo[2,3-b]pyridin-3-yl)pyrimidine-5-carbonitrile], for which the Ki was over 40 nM.

As to `C[C@@H](Nc1ncc(C#N)c(-c2c[nH]c3ncc(C(F)(F)F)cc23)n1)[C@H]1CC[C@H](NC(=O)CN)CC1` [Compound I-264, 2-amino-N-((1R,4r)-4-((1R)-1-(5-cyano-4-(5-(trifluoromethyl)-1H-pyrrolo[2,3-b]pyridin-3-yl)pyrimidin-2-ylamino)ethyl)cyclohexyl)acetamide], the Ki is under 3 nM.

For `C[C@@H](Nc1ncc(C#N)c(-c2c[nH]c3ncc(C(F)(F)F)cc23)n1)c1ccc(OC2CCN(C)CC2)cc1` [Compound I-154, 2-((R)-1-(4-(1-methylpiperidin-4-yloxy)phenyl)ethylamino)-4-(5-(trifluoromethyl)-1H-pyrrolo[2,3-b]pyridin-3-yl)pyrimidine-5-carbonitrile], the Ki was 3 to 40 nM.

With `CC(=O)N1CCC(C(C)Nc2ncc(C#N)c(-c3c[nH]c4ncc(C(F)(F)F)cc34)n2)CC1` (stereo not drawn) [Compound I-101, 2-(1-(1-acetylpiperidin-4-yl)ethylamino)-4-(5-(trifluoromethyl)-1H-pyrrolo[2,3-b]pyridin-3-yl)pyrimidine-5-carbonitrile], the Ki was under 3 nM.

On to `C[C@@H](Nc1ncc(C#N)c(-c2c[nH]c3ncc(C(F)(F)F)cc23)n1)c1ccc(N(C)C)cc1` [Compound I-133, 2-((R)-1-(4-(dimethylamino)phenyl)ethylamino)-4-(5-(trifluoromethyl)-1H-pyrrolo[2,3-b]pyridin-3-yl)pyrimidine-5-carbonitrile], for which the Ki is under 3 nM.

`CCNC(=O)c1ccc([C@@H](C)Nc2ncc(C#N)c(-c3c[nH]c4ncc(C(F)(F)F)cc34)n2)cc1` [Compound I-170, 4-((1R)-1-(5-cyano-4-(5-(trifluoromethyl)-1H-pyrrolo[2,3-b]pyridin-3-yl)pyrimidin-2-ylamino)ethyl)-N-ethylbenzamide]: the Ki was under 3 nM.

Turning to `N#Cc1cnc(NCc2cccc(F)c2)nc1-c1c[nH]c2ncc(C(F)(F)F)cc12` [Compound I-18, 2-(3-fluorobenzylamino)-4-(5-(trifluoromethyl)-1H-pyrrolo[2,3-b]pyridin-3-yl)pyrimidine-5-carbonitrile], the Ki fell in the range of 3 to 40 nM.

With `N#Cc1cnc(Sc2ccc(Cl)cc2)nc1-c1c[nH]c2ncc(C(F)(F)F)cc12` [II-2, 2-(4-chlorophenylthio)-4-(5-(trifluoromethyl)-1H-pyrrolo[2,3-b]pyridin-3-yl)pyrimidine-5-carbonitrile], the Ki was over 40 nM.

As to `CC(C)(Nc1ncc(C#N)c(-c2c[nH]c3ncc(Cl)cc23)n1)C(=O)NC1CCCCC1` [IA-5, 2-(4-(5-chloro-1H-pyrrolo[2,3-b]pyridin-3-yl)-5-cyanopyrimidin-2-ylamino)-N-cyclohexyl-2-methylpropanamide], the Ki lay within 3 to 40 nM.

As to `C[C@@H](Nc1ncc(C#N)c(-c2c[nH]c3ncc(C(F)(F)F)cc23)n1)c1ccc(NS(=O)(=O)C2CC2)cc1` [Compound I-168, N-(4-((1R)-1-(5-cyano-4-(5-(trifluoromethyl)-1H-pyrrolo[2,3-b]pyridin-3-yl)pyrimidin-2-ylamino)ethyl)phenyl)cyclopropanesulfonamide], the Ki was under 3 nM.

Take `CC(Nc1ncc(C#N)c(-c2c[nH]c3ncc(C(F)(F)F)cc23)n1)c1ccc(N[C@@H]2CCN(C)C2)nc1` (stereo partly drawn) [Compound I-293, 2-(1-(6-((R)-1-methylpyrrolidin-3-ylamino)pyridin-3-yl)ethylamino)-4-(5-(trifluoromethyl)-1H-pyrrolo[2,3-b]pyridin-3-yl)pyrimidine-5-carbonitrile]: the Ki was under 3 nM.

With `CC(C)C(C)Nc1ncc(C#N)c(-c2c[nH]c3ncc(C(F)(F)F)cc23)n1` (stereo not drawn) [Compound I-24, 2-(3-methylbutan-2-ylamino)-4-(5-(trifluoromethyl)-1H-pyrrolo[2,3-b]pyridin-3-yl)pyrimidine-5-carbonitrile], the Ki is 3 to 40 nM.

Take `C[C@@H](O)C(=O)N[C@H]1CC[C@H]([C@@H](C)Nc2ncc(C#N)c(-c3c[nH]c4ncc(C(F)(F)F)cc34)n2)CC1` [Compound I-265, Trans-(2R)—N-(4-((1R)-1-(5-cyano-4-(5-(trifluoromethyl)-1H-pyrrolo[2,3-b]pyridin-3-yl)pyrimidin-2-ylamino)ethyl)cyclohexyl)-2-hydroxypropanamide]: the Ki is under 3 nM.

Values taken from patent US8530489B2 (Vertex Pharmaceuticals Incorporated, priority 2006, dated 2013).
